22 compounds from ChEMBL document CHEMBL2146358, “Discovery of amide based fibrates as possible antidyslipidemic and antioxidant agents” (2012) can be followed below.

Common to all, as to format: functional
For assay [1], the system named is Rattus norvegicus. Briefly: Antidyslipidemic activity in Triton fed hyperlipidemic Charles Foster rat assessed as reduction in plasma triglyceride level at 100 mg/kg, po. Details: scale not given: the % may be the effect or the level left.
In assay [2] the test system is Rattus norvegicus. The experiment in a line: Antidyslipidemic activity in Triton fed hyperlipidemic Charles Foster rat assessed as reduction in plasma total cholesterol at 100 mg/kg, po. Also on record: scale not given: the % may be the effect or the level left.
The nature of assay [3]: Antioxidant activity assessed as inhibition of superoxide anion radical generation at 200 ug/ml by spectrophotometry.
For assay [4], the system named is Rattus norvegicus. The experiment in a line: Antidyslipidemic activity in Triton fed hyperlipidemic Charles Foster rat assessed as increase in post heparin lipoprotein lipase activity by measuring free fatty acids formation rate per ml of plasma at 100 mg/kg, po.
Assay [5] is described as follows: Antioxidant activity assessed as inhibition of hydroxyl radical generation at 200 ug/ml by spectrophotometry.
Assay [6] is filed under the species Rattus norvegicus. Briefly: Increase in lipoprotein lipase activity in Triton fed hyperlipidemic Charles Foster rat plasma assessed as free fatty acids formation rate per ml of plasma relative to untreated Triton control. Details: concentration or dose not given beside the values.
Assay [7] concerns Rattus norvegicus. Briefly: Antidyslipidemic activity in Triton fed hyperlipidemic Charles Foster rat assessed as reduction in plasma phospholipids at 100 mg/kg, po. Details: scale not given: the % may be the effect or the level left.
Assay [8] in a line: Antioxidant activity in microsomes assessed as inhibition of lipid peroxidation by measuring MDA level at 200 ug/ml by spectrophotometry based TBARS method.

The term inhibition denotes the relative decrease from the control value, in per cent. As for `CCOC(=O)C(C)Oc1ccc(NC(=O)COc2ccccc2C(C)CC)cc1` (stereo not drawn), the Activity in the assay with Rattus norvegicus [1] turned out to be 24%; in the assay on Rattus norvegicus [2], 24%; in the assay with Rattus norvegicus [4] it was 15%; in the assay filed under Rattus norvegicus [6], 16%; in the assay with Rattus norvegicus [7] it was 23%. The inhibition in assay [3], in assay [5] and in assay [8] was 25% each time.
On to `Cc1ccc(C)c(OCCCC(C)(C)C(=O)O)c1` [GEMFIBROZIL], for which the Activity was 33% in the assay on Rattus norvegicus [1]; 31% in the assay on Rattus norvegicus [2]; 31% in the assay with Rattus norvegicus [4]; 30% in the assay filed under Rattus norvegicus [6]; 33% in the assay on Rattus norvegicus [7].
As for `Cc1c(C)c2c(c(C)c1O)CC[C@@](C)(CCC[C@H](C)CCC[C@H](C)CCCC(C)C)O2`, in assay [8], the inhibition came out at 49%.
In the case of `CCOC(=O)CCCOc1ccc(NC(=O)COc2ccccc2Cl)cc1`, the Activity with Rattus norvegicus [1] was found to be 8%; in the assay on Rattus norvegicus [2] it was 9%; with Rattus norvegicus [4] it was 12%; in the assay on Rattus norvegicus [7], 6%.
Turning to `CCOC(=O)CCCOc1ccc(NC(=O)COc2ccc3ccccc3c2)cc1`, the Activity in the assay with Rattus norvegicus [1] was 22%; with Rattus norvegicus [2] it was 21%; in the assay on Rattus norvegicus [4] it was 17%; with Rattus norvegicus [7], 19%. Further, the figures for the inhibition in assay [3], in assay [5] and in assay [8] were 27%, 25% and 29%, respectively.
Regarding `CCOC(=O)C(C)Oc1ccc(NC(=O)COc2ccccc2Cl)cc1` (stereo not drawn), the Activity in the assay with Rattus norvegicus [1] is on record as 25%; in the assay on Rattus norvegicus [2], 25%; in the assay on Rattus norvegicus [4] it was 23%; in the assay listed under Rattus norvegicus [6], 21%; in the assay on Rattus norvegicus [7] it was 26%. Besides, the inhibition in assay [3] is 33%; in assay [5] it was 26%; in assay [8] it was 26%.
As for `CCOC(=O)CCCOc1ccc(NC(=O)COc2ccc(Cl)cc2Cl)cc1`, the Activity in the assay on Rattus norvegicus [1] is given as 7%; with Rattus norvegicus [2], 9%; with Rattus norvegicus [4] it was 12%; in the assay on Rattus norvegicus [7] it was 8%.
The like results for `CCOC(=O)C(CC)Oc1ccc(NC(=O)COc2ccc3ccccc3c2)cc1` (stereo not drawn) were, in that order, 13%, 12%, 12% and 9%.
`CCOC(=O)C(C)(C)Oc1ccc(NC(=O)COc2ccc(Cl)cc2Cl)cc1`: the Activity in the assay with Rattus norvegicus [1] came to 13%; with Rattus norvegicus [2] it was 8%; with Rattus norvegicus [4] it was 9%; in the assay with Rattus norvegicus [7], 4%.
For `CCOC(=O)C(C)Oc1ccc(NC(=O)COc2ccc(Cl)cc2Cl)cc1` (stereo not drawn), in that order: 10%, 8%, 10% and 7%.
`CCOC(=O)C(C)(C)Oc1ccc(NC(=O)COc2ccccc2C(C)CC)cc1` (stereo not drawn): the Activity with Rattus norvegicus [1] was 6%; in the assay on Rattus norvegicus [2] it was 7%; with Rattus norvegicus [4], 14%; in the assay on Rattus norvegicus [7] it was 10%.
The like results for `CCOC(=O)C(CC)Oc1ccc(NC(=O)CSc2ccc3ccccc3c2)cc1` (stereo not drawn) were, in that order, 5%, 6%, 7% and 4%.
For `CCOC(=O)COc1ccc(NC(=O)COc2ccc3ccccc3c2)cc1`, in that order: 11%, 14%, 15% and 14%.
For `CCOC(=O)CCCOc1ccc(NC(=O)COc2ccccc2C(C)CC)cc1` (stereo not drawn), in that order: 11%, 9%, 13% and 10%.
On to `Oc1ncnc2[nH]ncc12`, for which the inhibition in assay [3] was 41%.
For `CCOC(=O)C(CC)Oc1ccc(NC(=O)COc2ccccc2C(C)CC)cc1` (stereo not drawn), the Activity was 9% in the assay with Rattus norvegicus [1], 10% in the assay on Rattus norvegicus [2], 5% with Rattus norvegicus [4] and 9% in the assay on Rattus norvegicus [7].
On to `CCOC(=O)C(C)Oc1ccc(NC(=O)COc2ccc3ccccc3c2)cc1` (stereo not drawn), for which the Activity with Rattus norvegicus [1] is recorded as 26%; with Rattus norvegicus [2] it was 23%; in the assay on Rattus norvegicus [4], 26%; in the assay listed under Rattus norvegicus [6], 24%; with Rattus norvegicus [7], 25%. For the same compound, the values for the inhibition in assay [3], in assay [5] and in assay [8] were 25%, 25% and 22%, respectively.
As to `CCOC(=O)C(C)(C)Oc1ccc(NC(=O)COc2ccc3ccccc3c2)cc1`, the Activity stood at 27% in the assay with Rattus norvegicus [1]; 25% in the assay on Rattus norvegicus [2]; 23% with Rattus norvegicus [4]; 22% in the assay listed under Rattus norvegicus [6]; 24% in the assay with Rattus norvegicus [7]. For the same compound, the inhibition was determined as 30% in assay [3], 22% in assay [5] and 22% in assay [8].
Regarding `CCOC(=O)COc1ccc(NC(=O)COc2ccccc2Cl)cc1`, the Activity is given as 6% with Rattus norvegicus [1], 6% with Rattus norvegicus [2], 9% in the assay with Rattus norvegicus [4] and 9% in the assay with Rattus norvegicus [7].
For the compound `CCOC(=O)C(C)Oc1ccc(NC(=O)CSc2ccc3ccccc3c2)cc1` (stereo not drawn), the Activity in the assay with Rattus norvegicus [1] came to 28%; with Rattus norvegicus [2] it was 26%; with Rattus norvegicus [4], 24%; in the assay listed under Rattus norvegicus [6] it was 26%; in the assay with Rattus norvegicus [7] it was 24%. Besides, the inhibition in assay [3] is 31%; in assay [5], 28%; in assay [8], 35%.
In the case of `OC[C@@H](O)[C@@H](O)[C@H](O)[C@H](O)CO`, in assay [5], the inhibition amounted to 41%.
For `CCOC(=O)C(CC)Oc1ccc(NC(=O)COc2ccc(Cl)cc2Cl)cc1` (stereo not drawn), the Activity with Rattus norvegicus [1] amounted to 5%; in the assay on Rattus norvegicus [2], 2%; in the assay on Rattus norvegicus [4], 4%; in the assay with Rattus norvegicus [7], 3%.
